# Source: patent US10239849B2 (Merck Sharp & Dohme Corp., priority 2015, dated 2019)
# Experiments:
# [1] = biological target: T1, glutathione-S-transferase (GST) tagged LXRbeta LBD (ligand binding domain) (Homo sapiens, UniProt P55055); test: LanthaScreen TR-FRET Liver X Receptor Coactivator Assay, LXR beta-LBD; format: biochemical; conditions: for Emax: efficacy in relation to reference dual agonist T1317, read-out: LXR beta activity at max dose (%) (Emax); for EC50: potency (Inflection Point) of co-activator recruitment, TR-FRET, read-out: LXR beta IP
# T1 construct: purchased Invitrogen pv4658.pps
# T1 sequence (P55055 222-460 limits assumed): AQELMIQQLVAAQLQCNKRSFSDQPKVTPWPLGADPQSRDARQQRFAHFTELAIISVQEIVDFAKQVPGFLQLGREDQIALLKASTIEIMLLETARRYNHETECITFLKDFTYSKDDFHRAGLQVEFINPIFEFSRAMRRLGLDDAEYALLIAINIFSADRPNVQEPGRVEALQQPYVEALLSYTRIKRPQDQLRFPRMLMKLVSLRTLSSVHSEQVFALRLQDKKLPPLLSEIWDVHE
# Procedure, shortened: (§1)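 Measures ligand-driven coactivator peptide binding by time-resolved energy transfer between terbium-tagged anti-GST antibody and fluorescein-labelled peptide. Incubation is at room temperature.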
# [2] = biological target: T2, glutathione-S-transferase (GST) tagged LXRalpha LBD (ligand binding domain) (Homo sapiens, UniProt Q13133); test: LanthaScreen TR-FRET Liver X Receptor Coactivator Assay, LXR alpha-LBD; format: biochemical; conditions: for Emax: efficacy in relation to reference dual agonist T1317, read-out: LXR alpha activity at max dose (%) (Emax); for EC50: potency (Inflection Point) of co-activator recruitment, TR-FRET, read-out: LXR alpha IP
# T2 construct: purchased Invitrogen pv4655
# T2 sequence (Q13133 209-447 limits assumed): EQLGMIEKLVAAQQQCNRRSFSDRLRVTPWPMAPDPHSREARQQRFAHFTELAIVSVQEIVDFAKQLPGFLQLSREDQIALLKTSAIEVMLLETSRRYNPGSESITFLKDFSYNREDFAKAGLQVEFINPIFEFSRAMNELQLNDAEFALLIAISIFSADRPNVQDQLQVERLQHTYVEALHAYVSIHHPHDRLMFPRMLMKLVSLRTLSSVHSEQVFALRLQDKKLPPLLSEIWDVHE
# Procedure, shortened: as §1
Compound,Emax [1] [%],EC50 [1] [nM],Emax [2] [%],EC50 [2] [nM]
"CCC(C)S(=O)(=O)N1CCN(c2ncc(-c3ccc(C(=O)N(C)C)c(Cl)c3)cc2C#N)CC1 (stereo not shown) [Example 1-4, 2-chloro-4-(5-cyano-6-{4-[(1-methylpropyl)sulfonyl]piperazin-1-yl}pyridin-3-yl)-N,N-dimethylbenzamide]",81,279,44,49000
"CN(C)C(=O)c1ccc(-c2cnc(N3C4CCC3C3CCC4N3C(=O)OC(C)(C)C)c(C#N)c2)cc1Cl [Example 8-11, tert-butyl 10-{5-[3-chloro-4-(dimethylcarbamoyl)phenyl]-3-cyanopyridin-2-yl}-9,10-diazatricyclo[4.2.1.1~2,5~]decane-9-carboxylate]",57,1050,41,10900
"CN(C)C(=O)c1ccc(-c2cnc(N3CCN(S(=O)(=O)c4ccccc4C#N)CC3)c(C#N)c2)cc1Cl [Example 1-9, 2-chloro-4-(5-cyano-6-{4-[(2-cyanophenyl)sulfonyl]piperazin-1-yl}pyridin-3-yl)-N,N-dimethylbenzamide]",123,22,46,618
"CN(C)C(=O)c1ccc(-c2cnc(N3CC4CCC(C3)N4C(=O)OC(C)(C)C)c(C#N)c2)cc1Cl [Example 8-7, tert-butyl 3-{5-[3-chloro-4-(dimethylcarbamoyl)phenyl]-3-cyanopyridin-2-yl}-3,8-diazabicyclo[3.2.1]octane-8-carboxylate]",71,31,52,1640
